target: Indoleamine 2,3-dioxygenase 1 (Homo sapiens, UniProt P14902); assay: Inhibitory Activity Assay: IDO1 (His-tag) enzyme(BPS Bioscience), L-tryptophan (Sigma), methylene blue (Sigma), Catalase originated from the liver of cattle (Sigma), L-ascorbic acid (Sigma), glycerol (Sigma), potassium dihydrogen phosphate solution (Sigma), Tween 20 (Sigma), automatic sampling platformLiquid handler (Bravo & Echo), microplate ReaderSpectraMax M5e (Molecular Devices). Test Method of Compounds: The Compounds are Determined by Absorbance Test Method:The tested compounds are dissolved in DMSO to prepare a high concentration of storage solution. The stock solution of reference compound was diluted with DMSO to prepare a 100× solution. In the first column of the working plate, 8 μL above tested compounds and 8 μL 100× reference compound were respectively added as the highest concentration, and then the highest concentrations were subjected to three times dilution to obtain 11 concentrations and prepare 100× solution. 0.5 μL solution was transferred from the above plate to the detection plate. To each well was added 0.5 μL 100× compound solution. For HPE and ZPE control wells, 0.5 μL 100% DMSO was added. 25 μL 2×IDO1 (His-tag) enzyme solution (containing L-ascorbic acid, methylene blue, and catalase) was added to each well. 25 μL reaction solution without IDO1 (His-tag) enzyme was added into HPE control well. The test plate was centrifugated at 1000 rpm for 1 minute to mix well. Then, the test plate was incubated at room temperature for 30 minutes. 25 μL above 2× substrate (L-tryptophan) solution was added to each well. The test plate was centrifugated at 1000 rpm for 1 minute to mix well. The detection plate was placed on ELISA (SpectraMax M5e), the temperature was set at 25° C., and the absorbance (OD value) was measured at 320 nm every 10 minutes till 60 minutes.<p id="p-0313" num="0311">Calculating the increase ratio of absorbance: the slope of the absorbance increase curve from 10 min to 60 min is derived from SpectralMax M5e. […]
Sequence (P14902 whole entry): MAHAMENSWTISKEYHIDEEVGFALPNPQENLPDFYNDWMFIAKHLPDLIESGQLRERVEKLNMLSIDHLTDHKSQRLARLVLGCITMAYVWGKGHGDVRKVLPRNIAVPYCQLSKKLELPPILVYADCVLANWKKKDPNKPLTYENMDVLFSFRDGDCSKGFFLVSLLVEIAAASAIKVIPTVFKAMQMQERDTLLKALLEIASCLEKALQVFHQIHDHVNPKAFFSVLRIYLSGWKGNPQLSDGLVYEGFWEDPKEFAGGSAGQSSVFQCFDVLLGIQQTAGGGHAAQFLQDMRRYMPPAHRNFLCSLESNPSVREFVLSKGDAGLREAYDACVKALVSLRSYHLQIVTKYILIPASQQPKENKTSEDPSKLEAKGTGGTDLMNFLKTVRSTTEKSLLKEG

IC50 [nM]	SMILES
49	CNS(=O)(=O)CCCNc1nonc1/C(=N/O)Nc1ccc(F)c(Br)c1
172	CCNS(=O)(=O)CCCNc1nonc1C(=NO)Nc1ccc(F)c(Br)c1
281	CC(C)NS(=O)(=O)CCCNc1nonc1/C(=N/O)Nc1ccc(F)c(Br)c1

— ChEMBL document CHEMBL5729609, “Indoleamine-2,3-dioxygenase inhibitor, preparation method therefor and use thereof” (2023)
